Assay results: ChEMBL document CHEMBL4673334, “In Vivo Biological Evaluation of a Synthetic Royleanone Derivative as a Promising Fast-Acting Trypanocidal Agent by Inducing Mitochondrial-Dependent Necrosis” (J Nat Prod, 2020)
The source made the active and inactive calls. The calls are words filed in the database; no cut-off is given here.

Columns and labels:
Trypanosoma cruzi [1] = assay: Antitrypanosomal activity against Trypanosoma cruzi IRHOD/CO/2008/SN3 (DTU I) amastigote form infected in Vero cells assessed as parasite growth inhibition incubated for 72 hrs by Giemsa-staining based assay; format: functional, organism-based
[2] = Toxicity in BALB/c mouse infected with Trypanosomal Trypanosoma cruzi MHOM/Pe/2011/Arequipa(DTU V) assessed as effect on uric acid level at 20 mg/kg, po administered for 5 days starting at 9 days post infection and measured after 2 days post treatment; format: organism-based; settings: in vivo, 120 h, time 5 day
Trypanosoma cruzi [3] = assay: Antitrypanosomal activity against Trypanosoma cruzi MHOM/Pe/2011/Arequipa(DTU V) epimastigote form assessed as disruption of D-lactate level at IC25 concentration incubated for 72 hrs by NMR spectrometric analysis; format: functional, organism-based
Trypanosoma cruzi [4] = assay: Antitrypanosomal activity against Trypanosoma cruzi IRHOD/CO/2008/SN3 (DTU I) epimastigote form assessed as parasite growth inhibition incubated for 48 hrs by resazurin dye based assay; format: functional, organism-based
Trypanosoma cruzi [5] = assay: Antitrypanosomal activity against Trypanosoma cruzi MHOM/Pe/2011/Arequipa(DTU V) amastigote form infected in BALB/c mouse assessed as reduction in parasite growth at 20 mg/kg, po administered for 5 days starting at 9 days post infection and measured up to 106 days post infection by ELISA assay; format: functional, organism-based; settings: time 5.0 day
Trypanosoma cruzi [6] = assay: Antitrypanosomal activity against Trypanosoma cruzi TINF/CH/1956/Tulahuen (DTU VI) epimastigote form assessed as parasite growth inhibition incubated for 48 hrs by resazurin dye based assay; format: functional, organism-based
[7] = Selectivity index, ratio of IC50 for cytotoxicity against African green monkey Vero cells to IC50 for antitrypanosomal activity against Trypanosoma cruzi IRHOD/CO/2008/SN3 (DTU I) blood stream trypomastigote form; format: toxicity, cell-based; settings: read-out: Ratio IC50
[8] = Toxicity in BALB/c mouse infected with Trypanosomal Trypanosoma cruzi MHOM/Pe/2011/Arequipa(DTU V) assessed as effect on LDH level at 20 mg/kg, po administered for 5 days starting at 9 days post infection and measured after 2 days post treatment; format: organism-based; settings: in vivo, 120 h, time 5 day
[9] = Toxicity in BALB/c mouse infected with Trypanosomal Trypanosoma cruzi MHOM/Pe/2011/Arequipa(DTU V) assessed as effect on total bilirubin level at 20 mg/kg, po administered for 5 days starting at 9 days post infection and measured after 2 days post treatment; format: organism-based; settings: in vivo, 120 h, time 5 day
Trypanosoma cruzi [10] = assay: Antitrypanosomal activity against Trypanosoma cruzi IRHOD/CO/2008/SN3 (DTU I) blood stream trypomastigote form assessed as parasite growth inhibition incubated for 24 hrs by resazurin dye based assay; format: functional, organism-based
Trypanosoma cruzi [11] = assay: Antitrypanosomal activity against Trypanosoma cruzi MHOM/Pe/2011/Arequipa(DTU V) amastigote form infected in BALB/c mouse assessed as reactivation parasitaemia at 20 mg/kg, po administered for 5 days starting at 100 days post infection and measured up to 145 days post infection relative to control; format: functional
[12] = Toxicity in BALB/c mouse infected with Trypanosomal Trypanosoma cruzi MHOM/Pe/2011/Arequipa(DTU V) assessed as effect on ALT/GPT level at 20 mg/kg, po administered for 5 days starting at 100 days post infection and measured after 2 days post treatment; format: organism-based; settings: in vivo, 120 h, time 5 day
Trypanosoma cruzi [13] = assay: Antitrypanosomal activity against Trypanosoma cruzi MHOM/Pe/2011/Arequipa(DTU V) blood stream trypomastigote form assessed as parasite growth inhibition incubated for 24 hrs by resazurin dye based assay; format: functional, organism-based
[14] = Toxicity in BALB/c mouse infected with Trypanosomal Trypanosoma cruzi MHOM/Pe/2011/Arequipa(DTU V) assessed as effect on LDH level at 20 mg/kg, po administered for 5 days starting at 100 days post infection and measured after 2 days post treatment; format: organism-based; settings: in vivo, 120 h, time 5 day
[15] = Selectivity index, ratio of IC50 for cytotoxicity against African green monkey Vero cells to IC50 for antitrypanosomal activity against Trypanosoma cruzi MHOM/Pe/2011/Arequipa(DTU V) epimastigote form; format: toxicity, cell-based; settings: read-out: Ratio IC50
Trypanosoma cruzi [16] = assay: Inhibition of Trypanosoma cruzi MHOM/Pe/2011/Arequipa(DTU V) epimastigote form Fe-SOD at 12.5 uM by UV-VIS spectrophotometric method relative to control
Trypanosoma cruzi [17] = assay: Antitrypanosomal activity against Trypanosoma cruzi MHOM/Pe/2011/Arequipa(DTU V) epimastigote form assessed as disruption of pyruvate level at IC25 concentration incubated for 72 hrs by NMR spectrometric analysis; format: functional, organism-based
[18] = Selectivity index, ratio of IC50 for cytotoxicity against African green monkey Vero cells to IC50 for antitrypanosomal activity against Trypanosoma cruzi MHOM/Pe/2011/Arequipa(DTU V) blood stream trypomastigote form; format: toxicity, cell-based; settings: read-out: Ratio IC50
[19] = Toxicity in BALB/c mouse infected with Trypanosomal Trypanosoma cruzi MHOM/Pe/2011/Arequipa(DTU V) assessed as effect on ALT/GPT level at 20 mg/kg, po administered for 5 days starting at 9 days post infection and measured after 2 days post treatment; format: organism-based; settings: in vivo, 120 h, time 5 day
Trypanosoma cruzi [20] = assay: Inhibition of mitochondrial membrane potential in Trypanosoma cruzi MHOM/Pe/2011/Arequipa(DTU V) epimastigote form at IC25 concentration after 72 hrs by Rho (FITC-A) staining based flow cytometric analysis; format: functional
Trypanosoma cruzi [21] = assay: Antitrypanosomal activity against Trypanosoma cruzi MHOM/Pe/2011/Arequipa(DTU V) amastigote form infected in BALB/c mouse assessed as parasite free organ tissue ratio at 20 mg/kg, po administered for 5 days starting at 100 days post infection and measured up to 145 days post infection by PCR analysis relative to control; format: functional; settings: time 5 day
[22] = Selectivity index, ratio of IC50 for cytotoxicity against African green monkey Vero cells to IC50 for antitrypanosomal activity against Trypanosoma cruzi IRHOD/CO/2008/SN3 (DTU I) epimastigote form; format: toxicity, cell-based; settings: read-out: Ratio IC50
[23] = Toxicity in BALB/c mouse infected with Trypanosomal Trypanosoma cruzi MHOM/Pe/2011/Arequipa(DTU V) assessed as effect on ALP level at 20 mg/kg, po administered for 5 days starting at 9 days post infection and measured after 2 days post treatment; format: organism-based; settings: in vivo, 120 h, time 5 day
[24] = Toxicity in BALB/c mouse infected with Trypanosomal Trypanosoma cruzi MHOM/Pe/2011/Arequipa(DTU V) assessed as reduction in weight at 20 mg/kg, po administered for 5 days starting at 9 days post infection and measured up to 145 days post infection; format: organism-based; settings: in vivo, 120 h, time 5 day
[25] = Toxicity in BALB/c mouse infected with Trypanosomal Trypanosoma cruzi MHOM/Pe/2011/Arequipa(DTU V) assessed as reduction in survival at 20 mg/kg, po administered for 5 days starting at 9 days post infection and measured up to 145 days post infection; format: organism-based; settings: in vivo, 120 h, time 5 day
Trypanosoma cruzi [26] = assay: Antitrypanosomal activity against Trypanosoma cruzi MHOM/Pe/2011/Arequipa(DTU V) amastigote form infected in BALB/c mouse assessed as reactivation parasitaemia at 20 mg/kg, po administered for 5 days starting at 9 days post infection and measured up to 145 days post infection relative to control; format: functional
Trypanosoma cruzi [27] = assay: Antitrypanosomal activity against Trypanosoma cruzi MHOM/Pe/2011/Arequipa(DTU V) epimastigote form assessed as disruption of L-alanine level at IC25 concentration incubated for 72 hrs by NMR spectrometric analysis; format: functional, organism-based
[28] = Toxicity in BALB/c mouse infected with Trypanosomal Trypanosoma cruzi MHOM/Pe/2011/Arequipa(DTU V) assessed as effect on AST/GOT level at 20 mg/kg, po administered for 5 days starting at 9 days post infection and measured after 2 days post treatment; format: organism-based; settings: in vivo, 120 h, time 5 day

Row | Compound | IC50 (Trypanosoma cruzi [1]) [µM] | Activity [2] | Activity (Trypanosoma cruzi [3]) | IC50 (Trypanosoma cruzi [4]) [µM] | IC50 (Trypanosoma cruzi [6]) [µM] | selectivity ratio [7] | Activity [8] | Activity [9] | IC50 (Trypanosoma cruzi [10]) [µM] | Activity [12] | IC50 (Trypanosoma cruzi [13]) [µM] | Activity [14] | selectivity ratio [15] | Activity (Trypanosoma cruzi [17]) | selectivity ratio [18] | Activity [19] | inhibition (Trypanosoma cruzi [20]) [%] | Activity (Trypanosoma cruzi [21]) [%] | selectivity ratio [22] | Activity [23] | other results
1 | COC(=O)[C@]1(C)CCC[C@]2(C)C3=C(C=C[C@@H]12)C(=O)C(C(C)C)=CC3=O | 5.4 | Non-Toxic | inactive | 1.6 | 2.1 | > 40 | Non-Toxic | Non-Toxic | 1.8 | Non-Toxic | 0.7 | Non-Toxic | > 15 | inactive | > 40 | Non-Toxic | 50 | 57.1 | > 15 | Non-Toxic | Activity (Trypanosoma cruzi [5]): Active; Activity (Trypanosoma cruzi [11]; time 5 day): 52%; inhibition (Trypanosoma cruzi [16]): 80%; Activity [24]: Non-Toxic; Activity [25]: Non-Toxic; Activity (Trypanosoma cruzi [26]; time 5 day): 52%; Activity (Trypanosoma cruzi [27]): inactive; Activity [28]: Non-Toxic
2 | CC(C)c1cc(C=O)c([C@@]2(C)CCCC(C)(C)C2=O)cc1O | 7.2 | Non-Toxic | inactive | 12.5 | 13.5 | > 40 | Non-Toxic | Non-Toxic | 8.7 | Non-Toxic | 9.9 | Non-Toxic | > 15 | inactive | > 40 | Non-Toxic | 41.8 | 42.9 | > 15 | Non-Toxic | Activity (Trypanosoma cruzi [11]; time 5.0 day): Active; Activity [24]: Non-Toxic; Activity [25]: Non-Toxic; Activity (Trypanosoma cruzi [26]; time 5.0 day): Active; Activity (Trypanosoma cruzi [27]): inactive; Activity [28]: Non-Toxic
